Test results reported in PMC5365251, “Biophysical assay for tethered signaling reactions reveals tether-controlled activity for the phosphatase SHP-1” (Science Advances, 2017).

System: PEG28-ITIM
Test: SPR of SHP-1 injected over immobilised PEG28-ITIM: binding constants (MPDPDE fit)
Set-up: species or system mouse
Details: tethered SPR assay with active PTP domain
Method: A construct expressing murine SHP-1 with an N-terminal 6× His tag was provided by M. H. Brown. Mutation of the SH2 domains was performed using a quick-change strategy. The mutations introduced were R30K and R33E for the N-terminal SH2 domain mutant and R136K for the C-terminal SH2 domain mutant previously shown to result in loss of binding ([6]). All peptides were ordered from PeptideSynthetics and were certified to be >95% pure. Peptides sequences were derived from the membrane-proximal ITIM sequence of mouse LAIR-1 receptor.
Experiments were performed on a Biacore 3000 instrument (GE Healthcare Life Sciences). All experiments were performed at 10°C and with a buffer flow rate of 10 μl/min. The buffer used was Hepes-buffered saline (HBS-EP; GE Healthcare Life Sciences), which contained 10 mM Hepes (pH 7.4), 150 mM NaCl, 3 mM EDTA, and 0.005% Surfactant P20.
A CM5 sensorchip was coupled with streptavidin to near saturation (typically between 4000 and 7000 RU) using the amine coupling kit (GE Healthcare Life Sciences) as described previously ([42]). After streptavidin was coupled, biotinylated peptides were injected to give the indicated concentrations in experimental flow cells, and excess biotin-binding sites were blocked with biotin in HBS-EP. The molar ratio of peptide to streptavidin was kept below 1:1 to ensure that peptide immobilization was random and not clustered on the tetravalent streptavidin molecules. Reference flow cells were treated with buffer and then blocked with biotin; pilot experiments using unphosphorylated control peptides in reference flow cells were indistinguishable from buffer-treated reference flow cells when injected with SHP-1. The chip surface was then conditioned with 5 × 5-min injections of HBS-EP. SHP-1 protein in HBS-EP with 1 mM dithiothreitol was then injected over reference and experimental flow cells in series for 5 min at the indicated concentrations. All SPR data were converted from the reference-subtracted data (in resonance units) to fraction bound by dividing the resonance units by the theoretical maximum resonance units expected if the experimental flow cell was saturated with bound SHP-1.
To determine the concentration of peptide in the assays, we first needed a conversion factor between the resonance units and the mass of peptide at the chip surface. We determined this conversion factor by injecting four concentrations of SHP-1 over a control flow cell on a CM5 chip and plotting the mass of SHP-1 injected against the raw resonance unit change. We repeated this on seven flow cells across four sensor chips to get an average slope of 149 ± 15 RU per g/liter (±SEM). […]

Substance: SHP-1: murine SHP-1 tyrosine phosphatase with an N-terminal 6× His tag, expressed in E. coli
- bivalent reactions (in words): no evidence for bivalent reactions
